Measurements as given in patent publication US20050124493A1, “Herbicidal composition” (priority 2002, published 2005).

System: wheat and barley
Assay: Post-emergence greenhouse test of herbicide mixture with safener (Example B1)
Format: in vivo
Settings: greenhouse pots, mixture of MCPA, bromoxynil and herbicide H1 or H2, alone vs. with safener (admixture or seed dressing), evaluated after 9, 10, 20 and 24 days, 100% action=plant completely dead, 0%=no phytotoxic action
From the text: Examples B1: Post-emergence applications of mixtures of MCPA, bromoxynil and the herbicide of formula I wherein R1 and R3 are —C2H5; R4 and R5 together form a group —CR14(R15)—CR16(R17)—O—CR18(R19)—CR20(R21)— wherein R14, R15 R16, R17, R18, R19, R20 and R21 are hydrogen; and G is either hydrogen (=herbicide H1) or (CH3)3CC(O)— (=herbicide H2), with the safener of formula II wherein Rs1 is chlorine and Rs2 is 1-methylhexyl, in wheat and barley, and together with 3 different weeds.
The test plants are grown to a post-application stage in pots under greenhouse conditions. A standard soil is used as cultivation substrate. At a post-emergence stage, the herbicides, both on their own and in admixture with the safener, are applied to the test plants or to cultivated plants seed-dressed with safener. The application is carried out using an emulsion (prepared from a 25% emulsifiable concentrate (Example F1, b)) of the test substances using 500 litres of water per ha. The rates of application depend on the optimum concentrations ascertained under field conditions and greenhouse conditions. The tests are evaluated after 9, 10, 20 and 24 days (100% action=plant is completely dead, 0% action=no phytotoxic action).

CCCCCC(C)OC(=O)COc1ccc(Cl)c2cccnc12 (stereo not shown) [safener]
damage caused to the cultivated plants by the herbicide mixture (phytotoxic action): significantly reduce the damage
